From patent US10308639B2, “Phosphatidylinositol 3-kinase inhibitors” (Gilead Sciences, Inc., priority 2014, dated 2019) come the findings set out here.

By IC50 is commonly meant the concentration needed to halve the response being measured.

For this experiment, the target named is T1, PI3Kγ (Homo sapiens, UniProt P48736).
T1 construct: made in house
In words: TR-FRET enzymatic activity assay, PI3Kγ. The experiment is classed as biochemical. Here is the method: The compounds of formula (I) were characterized for their enzymatic activity against the PI3K isoforms. The activities were measured using a time-resolved fluorescence resonance energy transfer (TR-FRET) assay.

[1] abbreviates: Table 2, TR-FRET, 2x Km ATP, 30 minutes at 25° C., read-out: PI3Kγ IC50.
[2] abbreviates: Table 2a, same assay, read-out: PI3Kγ IC50.

Like-named read-outs stand apart in the source and are kept apart here.

T1 sequence (P48736 whole entry): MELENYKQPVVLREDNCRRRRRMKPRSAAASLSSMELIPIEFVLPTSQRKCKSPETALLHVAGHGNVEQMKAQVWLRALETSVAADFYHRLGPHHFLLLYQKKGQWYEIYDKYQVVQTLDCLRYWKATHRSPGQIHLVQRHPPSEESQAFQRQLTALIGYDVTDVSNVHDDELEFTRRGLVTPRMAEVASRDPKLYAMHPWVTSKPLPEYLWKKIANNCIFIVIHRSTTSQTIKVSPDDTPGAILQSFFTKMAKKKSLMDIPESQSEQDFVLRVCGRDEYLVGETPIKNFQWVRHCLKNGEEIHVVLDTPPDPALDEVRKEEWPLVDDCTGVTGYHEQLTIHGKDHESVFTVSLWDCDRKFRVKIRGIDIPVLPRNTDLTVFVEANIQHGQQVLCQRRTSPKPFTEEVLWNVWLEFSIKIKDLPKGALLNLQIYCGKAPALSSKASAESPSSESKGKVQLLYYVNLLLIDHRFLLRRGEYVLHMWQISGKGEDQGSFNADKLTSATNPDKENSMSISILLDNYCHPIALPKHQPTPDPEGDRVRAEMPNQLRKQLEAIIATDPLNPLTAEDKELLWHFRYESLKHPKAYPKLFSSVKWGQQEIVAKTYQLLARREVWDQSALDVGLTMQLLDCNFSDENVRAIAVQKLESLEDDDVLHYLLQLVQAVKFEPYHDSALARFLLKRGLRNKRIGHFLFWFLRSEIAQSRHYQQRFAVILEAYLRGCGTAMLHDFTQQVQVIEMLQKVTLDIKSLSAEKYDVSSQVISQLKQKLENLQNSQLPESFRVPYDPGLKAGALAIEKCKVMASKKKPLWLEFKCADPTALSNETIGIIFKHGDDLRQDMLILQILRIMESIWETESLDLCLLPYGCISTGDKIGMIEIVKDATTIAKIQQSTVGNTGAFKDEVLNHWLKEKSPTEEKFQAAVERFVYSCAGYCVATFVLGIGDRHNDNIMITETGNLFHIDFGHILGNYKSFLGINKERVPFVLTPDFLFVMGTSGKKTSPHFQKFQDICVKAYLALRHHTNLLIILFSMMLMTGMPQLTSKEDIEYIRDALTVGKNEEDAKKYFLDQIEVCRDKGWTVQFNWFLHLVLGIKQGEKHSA

With `C[C@H](Nc1nc(N)nc(N)c1C#N)c1nc2cccc(Cl)c2c(=O)n1-c1cc[nH]n1` [Compound 16, (S)-2,4-diamino-6-((1-(5-chloro-4-oxo-3-(1H-pyrazoyl)-3,4-dihydroquinazolin-2-yl)ethyl)amino)pyrimidine-5-carbonitrile], the IC50 under setting [1] stood at 51 nM.

The compound `C[C@@H](Nc1nc(N)nc(N)c1Cl)c1nc2c(Cl)cc(F)cc2c(=O)n1-c1cc[nH]n1` [Compound 174, (R)-8-chloro-2-(1-((2,6-diamino-5-chloropyrimidin-4-yl)amino)ethyl)-6-fluoro-3-(1H-pyrazol-3-yl)quinazolin-4(3H)-one] had an IC50 greater than 10000 nM.

For the compound `Cc1nc(N)nc(N[C@H](c2nc3cccc(Cl)c3c(=O)n2-c2cc[nH]n2)C2CC2)c1C#N` [Compound 28, (S)-2-amino-4-(((5-chloro-4-oxo-3-(1H-pyrazol-3-yl)-3,4-dihydroquinazolin-2-yl)(cyclopropyl)methyl)amino)-6-methylpyrimidine-5-carbonitrile], the IC50 under setting [1] is 270 nM.

Take `N#Cc1c(N)nc(N)nc1N[C@H](c1nc2c(Cl)cc(F)cc2c(=O)n1-c1cc[nH]n1)C1CC1` [Compound 125, (S)-2,4-diamino-6-(((8-chloro-6-fluoro-4-oxo-3-(1H-pyrazol-3-yl)-3,4-dihydroquinazolin-2-yl)(cyclopropyl)methyl)amino)pyrimidine-5-carbonitrile]: under setting [1], the IC50 came to 630 nM.

Consider `CC[C@H](Nc1nc(N)nc(C(F)F)c1C#N)c1nc2c(Cl)cc(F)cc2c(=O)n1-c1cc[nH]n1` [Compound 180, (S)-2-amino-4-((1-(8-chloro-6-fluoro-4-oxo-3-(1H-pyrazol-3-yl)-3,4-dihydroquinazolin-2-yl)propyl)amino)-6-(difluoromethyl)pyrimidine-5-carbonitrile], for which, under setting [2], the IC50 amounted to 7800 nM.

With `N#Cc1c(N[C@H](c2nc3c(Cl)cc(F)cc3c(=O)n2-c2cc[nH]n2)C2CC2)nc(N)nc1C(F)F` [Compound 172, (S)-2-amino-4-(((8-chloro-6-fluoro-4-oxo-3-(1H-pyrazol-3-yl)-3,4-dihydroquinazolin-2-yl)(cyclopropyl)methyl)amino)-6-(difluoromethyl)pyrimidine-5-carbonitrile], the IC50 under setting [2] came out at 3500 nM.

For the compound `C[C@H](Nc1cc(N)nc(N)n1)c1nc2cccc(Cl)c2c(=O)n1-c1cc[nH]n1` [Compound 163, (S)-5-chloro-2-(1-((2,6-diaminopyrimidin-4-yl)amino)ethyl)-3-(1H-pyrazol-3-yl)quinazolin-4(3H)-one], the IC50 was greater than 10000 nM.

`N#Cc1c(N[C@H](c2nc3cccc(Cl)c3c(=O)n2-c2cc[nH]n2)C2CC2)nc(N)nc1C(F)F` [Compound 171, (S)-2-amino-4-(((5-chloro-4-oxo-3-(1H-pyrazol-3-yl)-3,4-dihydroquinazolin-2-yl)(cyclopropyl)methyl)amino)-6-(difluoromethyl)pyrimidine-5-carbonitrile]: the IC50 under setting [2] was found to be 1100 nM.

`C[C@H](Nc1nc(N)nc(N)c1Cl)c1nc2c(Cl)cc(F)cc2c(=O)n1-c1cc[nH]n1` [Compound 123, (S)-8-chloro-2-(1-((2,6-diamino-5-chloropyrimidin-4-yl)amino)ethyl)-6-fluoro-3-(1H-pyrazol-3-yl)quinazolin-4(3h)-one]: the half-inhibitory concentration (IC50) was greater than 10000 nM.

For the compound `Nc1nc(N)c(Cl)c(N[C@@H](c2nc3cccc(Cl)c3c(=O)n2-c2cc[nH]n2)C2CC2)n1` [Compound 160, (R)-5-chloro-2-(cyclopropyl((2,6-diamino-5-chloropyrimidin-4-yl)amino)methyl)-3-(1H-pyrazol-3-yl)quinazolin-4(3H)-one], the IC50 under setting [2] is greater than 10000 nM.

On to `C[C@H](Nc1nc(N)nc(C(F)F)c1C#N)c1nc2cccc(F)c2c(=O)n1-c1cc[nH]n1` [Compound 191, (S)-2-amino-4-(difluoromethyl)-6-((1-(5-fluoro-4-oxo-3-(1H-pyrazol-3-yl)-3,4-dihydroquinazolin-2-yl)ethyl)amino)pyrimidine-5-carbonitrile], for which the IC50 under setting [2] is greater than 10000 nM.

Regarding `C[C@H](Nc1nc(N)nc(C(F)F)c1C#N)c1nc2c(F)cccc2c(=O)n1-c1cc[nH]n1` [Compound 186, (S)-2-amino-4-(difluoromethyl)-6-((1-(8-fluoro-4-oxo-3-(1H-pyrazol-3-yl)-3,4-dihydroquinazolin-2-yl)ethyl)amino)pyrimidine-5-carbonitrile], the IC50 under setting [2] is 4300 nM.

On to `C[C@H](Nc1nc(N)nc(C(F)F)c1C#N)c1nc2c(Cl)cc(F)cc2c(=O)n1-c1cc[nH]n1` [Compound 173, (S)-2-amino-4-((1-(8-chloro-6-fluoro-4-oxo-3-(1H-pyrazol-3-yl)-3,4-dihydroquinazolin-2-yl)ethyl)amino)-6-(difluoromethyl)pyrimidine-5-carbonitrile], for which, under setting [2], the IC50 was determined as 1300 nM.

As to `C[C@H](Nc1nc(N)nc(N)c1Cl)c1nc2cccc(Cl)c2c(=O)n1-c1cc[nH]n1` [Compound 64, (S)-5-chloro-2-(1-((2,6-diamino-5-chloropyrimidin-4-yl)amino)ethyl)-3-(1H-pyrazol-3-yl)quinazolin-4(3H)-one], the IC50 under setting [1] was 1200 nM.

As to `N#Cc1c(N)nc(N)nc1N[C@H](c1nc2cccc(Cl)c2c(=O)n1-c1cc[nH]n1)C1CC1` [Compound 18, (S)-2,4-diamino-6-(((5-chloro-4-oxo-3-(1H-pyrazol-3-yl)-3,4-dihydroquinazolin-2-yl)(cyclopropyl)methyl)amino)pyrimidine-5-carbonitrile], the IC50 under setting [1] was found to be 190 nM.

`C[C@H](Nc1nc(N)nc(N)c1Cl)c1nc2cccc(F)c2c(=O)n1-c1cc[nH]n1` [Compound 151, (S)-2-(1-((2,6-diamino-5-chloropyrimidin-4-yl)amino)ethyl)-5-fluoro-3-(1H-pyrazol-3-yl)quinazolin-4(3H)-one] came in with an IC50 greater than 10000 nM.

As to `CC[C@H](Nc1nc(N)nc(N)c1Cl)c1nc2c(Cl)cc(F)cc2c(=O)n1-c1cc[nH]n1` [Compound 257, (S)-8-chloro-2-(1-((2,6-diamino-5-chloropyrimidin-4-yl)amino)propyl)-6-fluoro-3-(1H-pyrazol-3-yl)quinazolin-4(3H)-one], the IC50 under setting [2] was greater than 10000 nM.

In the case of `C[C@H](Nc1ncnc(N)c1C#N)c1nc2cccc(Cl)c2c(=O)n1-c1cn[nH]c1` [Compound 2, (S)-4-amino-6-((1-(5-chloro-4-oxo-3-(1H-pyrazol-4-yl)-3,4-dihydroquinazolin-2-yl)ethyl)amino)pyrimidine-5-carbonitrile], the IC50 under setting [1] turned out to be 990 nM.

For `C[C@H](Nc1ncnc(N)c1C#N)c1nc2cccc(Cl)c2c(=O)n1-c1cc[nH]n1` [Compound 22, (S)-4-amino-6-((1-(5-chloro-4-oxo-3-(1H-pyrazol-3-yl)-3,4-dihydroquinazolin-2-yl)ethyl)amino)pyrimidine-5-carbonitrile], the IC50 under setting [1] is 990 nM.

In the case of `Nc1nc(N)c(Cl)c(N[C@H](c2nc3cccc(Cl)c3c(=O)n2-c2cc[nH]n2)C2CC2)n1` [Compound 20, (S)-5-chloro-2-(cyclopropyl((2,6-diamino-5-chloropyrimidin-4-yl)amino)methyl)-3-(1H-pyrazol-3-yl)quinazolin-4(3H)-one], the IC50 under setting [1] came to 5900 nM.

As for `C[C@H](Nc1nc(N)nc(C(F)F)c1C#N)c1nc2ccc(F)cc2c(=O)n1-c1cc[nH]n1` [Compound 193, (S)-2-amino-4-(difluoromethyl)-6-((1-(6-fluoro-4-oxo-3-(1H-pyrazol-3-yl)-3,4-dihydroquinazolin-2-yl)ethyl)amino)pyrimidine-5-carbonitrile], the IC50 under setting [2] turned out to be 8000 nM.
